In US6444615B1, “Herbicidal imidazolidinetrione and thioxo-imidazolidinediones” (Dow AgroSciences LLC, priority 2000, dated 2002):

Assays:
Assay type in all cases: in vivo
Details in all cases: 1200 g/ha, scale of 0-100, 0 no activity, 100 total control, about two or four weeks after application
[1] = test system: Barnyardgrass (Echinochloa crusgalli); assay: Herbicidal pre-emergence test, Barnyardgrass
Method: (§1) Listed below, a typical planting design for the test, consisting of four monocot weeds, four dicot weeds and one sedge weed. [table] For each compound, evaluation tests were carried out according to the following procedures: For preemergence tests, immediately after planting, the test compound was sprayed directly onto the soil surface. The flats or pots were placed in the greenhouse and then watered. For postemergence tests, seeds were allowed to germinate and grow for 10 to 21 days before application. The test plants were selected for uniformity, size and stage of development. The test plants were then treated with the test compound, returned to the greenhouse and watered. Untreated plants were used as a comparison. The compound to be evaluated was dissolved in an appropriate solvent, usually acetone, or a formulation of the evaluated compounds as described above, was added to the water, and sprayed over the flats or pots using a carrier volume equivalent to 187 or 468 liters per hectare to give a rate of application in grams per hectare (g/ha). About two or four weeks after application of the test compounds, the state of the plant was observed. Each species was evaluated on a scale of 0-100 in which 0 equals no activity and 100 equals total control.

[2] = test system: Nightshade, (black) (Solanum nigrum); assay: Herbicidal pre-emergence test, Nightshade (black)
Method: as §1

[3] = test system: Nutsedge, (yellow) (Cyperus esculentus); assay: Herbicidal post-emergence test, Nutsedge (yellow)
Method: as §1

[4] = test system: Velvetleaf (Abutilon theophrasti); assay: Herbicidal pre-emergence test, Velvetleaf
Method: as §1

[5] = test system: Foxtail, (green) (Setaria viridis); assay: Herbicidal post-emergence test, Foxtail (green)
Method: as §1

[6] = test system: Hairy Beggarticks (Bidens pilosa); assay: Herbicidal pre-emergence test, Hairy Beggarticks
Method: as §1

[7] = test system: Barnyardgrass (Echinochloa crusgalli); assay: Herbicidal post-emergence test, Barnyardgrass
Method: as §1

[8] = test system: Foxtail, (green) (Setaria viridis); assay: Herbicidal pre-emergence test, Foxtail (green)
Method: as §1

[9] = test system: Nightshade, (black) (Solanum nigrum); assay: Herbicidal post-emergence test, Nightshade (black)
Method: as §1

[10] = test system: Smartweed, (pale) (Polygonum lapathifolium); assay: Herbicidal pre-emergence test, Smartweed (pale)
Method: as §1

[11] = test system: Smartweed, (pale) (Polygonum lapathifolium); assay: Herbicidal post-emergence test, Smartweed (pale)
Method: as §1

[12] = test system: Velvetleaf (Abutilon theophrasti); assay: Herbicidal post-emergence test, Velvetleaf
Method: as §1

[13] = test system: Perennial Ryegrass (Lolium perenne); assay: Herbicidal post-emergence test, Perennial Ryegrass
Method: as §1

[14] = test system: Perennial Ryegrass (Lolium perenne); assay: Herbicidal pre-emergence test, Perennial Ryegrass
Method: as §1

[15] = test system: Crabgrass (large) (Digitaria sanguinalis); assay: Herbicidal post-emergence test, Crabgrass (large)
Method: as §1

[16] = test system: Crabgrass (large) (Digitaria sanguinalis); assay: Herbicidal pre-emergence test, Crabgrass (large)
Method: as §1

[17] = test system: Nutsedge, (yellow) (Cyperus esculentus); assay: Herbicidal pre-emergence test, Nutsedge (yellow)
Method: as §1

[18] = test system: Hairy Beggarticks (Bidens pilosa); assay: Herbicidal post-emergence test, Hairy Beggarticks
Method: as §1

Row | SMILES | Herbicidal Activity BYG (pre-emergence) [1] | Herbicidal Activity NS (pre-emergence) [2] | Herbicidal Activity NUT (post-emergence) [3] | Herbicidal Activity VEL (pre-emergence) [4] | Herbicidal Activity FOX (post-emergence) [5] | Herbicidal Activity BID (pre-emergence) [6] | Herbicidal Activity BYG (post-emergence) [7] | Herbicidal Activity FOX (pre-emergence) [8] | Herbicidal Activity NS (post-emergence) [9] | Herbicidal Activity SMT (pre-emergence) [10] | Herbicidal Activity SMT (post-emergence) [11] | Herbicidal Activity VEL (post-emergence) [12] | Herbicidal Activity RYE (post-emergence) [13] | Herbicidal Activity RYE (pre-emergence) [14] | Herbicidal Activity CRB (post-emergence) [15] | Herbicidal Activity CRB (pre-emergence) [16] | Herbicidal Activity NUT (pre-emergence) [17] | Herbicidal Activity BID (post-emergence) [18]
1 | C#CCN1C(=O)COc2cc(F)c(N3C(=O)C(=O)N(C)C3=O)cc21 [Compound 22] | 40 | 95 | 60 | 40 | 80 | 95 | 60 | 100 | 100 | 85 | 90 | 100 | 30 | 0 | 40 | 100 | 0 | 80
2 | CN1C(=O)C(=O)N(c2cc(OC3CCCC3)c(Cl)cc2F)C1=O [Compound 3] | 0 | 0 | 0/0 | 0 | 60 | 0 | 30 | 0 | 80 | 0 | 85 | 100 | 0/0 | 0/0 | 0/0 | 0/0 | 0/0 | 80
3 | C=CCOc1cc(N2C(=O)C(=O)N(CCCC)C2=O)c(F)cc1Cl [Compound 16] | 0/0 | 0 | 0/0 | 0 | 60 | 0 | 0/0 | 0 | 100 | 0 | 80 | 100 | 0/0 | 0/0 | 0/0 | 0/0 | 0/0 | 95
4 | CCCN1C(=O)C(=O)N(c2cc(F)c(F)cc2F)C1=O [Compound C1, reference compound] | 0/0 | 0 | 0/0 | 0 | 0/0 | 0 | 0/0 | 0/0 | 80 | 0 | 60 | 60 | 0/0 | 0/0 | 0/0 | 0/0 | 0/0 | 40
5 | C#CCOc1cc(N2C(=O)C(=O)N(C)C2=O)c(F)cc1Cl [Compound 12] | 0 | 50 | 0/0 | 20 | 40 | 40 | 40 | 0 | 100 | 0 | 100 | 100 | 0/0 | 0/0 | 30 | 0 | 0/0 | 95
6 | CCCN1C(=O)C(=O)N(c2cc(OC3CCCC3)c(Cl)cc2F)C1=O [Compound 8] | 0 | 100/100 | 0/0 | 100/100 | 95 | 100 | 60 | 0 | 100/100 | 20 | 100 | 100/100 | 0/0 | 0/0 | 40 | 100 | 0/0 | 95
7 | O=C1C(=O)N(c2cc(OC3CCCC3)c(Cl)cc2F)C(=O)N1CCCl [Compound 6] | 40/40 | 30 | 0/0 | 0/0 | 0 | 30 | 40/40 | 30 | 80 | 30 | 0 | 0/0 | 0/0 | 0/0 | 0 | 30 | 0/0 | 0
8 | CCN1C(=O)C(=O)N(c2cc(OC3CCCC3)c(Cl)cc2F)C1=O [Compound 4] | 0 | 0 | 0/0 | 0 | 60 | 0 | 60 | 0 | 85 | 0 | 90 | 100 | 0/0 | 0/0 | 0/0 | 0/0 | 0/0 | 85
9 | C#CCN1C(=O)COc2cc(F)c(N3C(=O)C(=O)N(CCC)C3=O)cc21 [Compound 23, 1-n-propyl-3-[7-fluoro-4-(2-propynyl)-2ZH-1,4-benzoxazin-3(4H)-one-6-]-2,4,5-imidazlidinetrione] | 100 | 100/100 | 40 | 100/100 | 60 | 100 | 60 | 100 | 100/100 | 100 | 95 | 100/100 | 0 | 90 | 0 | 100 | 95 | 95
